Reference: patent US9169232B2, “3-(5-methyl-2-oxo-l, 3-dioxol-4-yl) methyloxy-2-trans-[(4-chloro phenyl) cyclohexyl][1,4]naphthaquinone-atovaquone prodrug” (Alkem Laboratories Limited, priority 2011, dated 2015)

How the values were obtained:
[1] = plasma levels of atovaquone after administration of the prodrug; details: in vivo
Description: (§1) The Atovaquone prodrug compound of formula (I) of the present invention overcomes the problems associated with poor solubility and variable bioavailability of atovaquone.

[2] = solubility of the prodrug compared with atovaquone; format: physicochemical
Description: as §1

[3] = in-vitro and animal study of toxicity; format: in vivo
Description: as §1

- plasma levels of atovaquone compared with levels after administration of atovaquone [1]: non-variable plasma levels of atovaquone
- solubility compared with atovaquone [2]: better solubility than atovaquone
Compound: Cc1oc(=O)oc1COC1=C(C2CCC(c3ccc(Cl)cc3)CC2)C(=O)c2ccccc2C1=O (stereo not drawn) [compound of formula (I), 3-(5-methyl-2-oxo-1,3-dioxol-4-yl)methyloxy-2-trans-[(4-chlorophenyl)cyclohexyl][1,4]naphthaquinone]
- toxicity [3]: toxicity in the acceptable range
